This note sets out measurements from patent publication US9981983B2, “Thienopyranones as kinase inhibitors” (SignalRx Pharmaceuticals, Inc., priority 2008, dated 2018).

The assay relates to PC3 cells. Briefly: PC3 prostate cancer cell proliferation (WST). The format is cell-based. The following applies: Homo sapiens, PC-3; 72 hours; read-out: IC50 PC3 Proliferation. On the procedure: PC3 cells were obtained from the American Type Culture Collection (ATCC, Manassas, Va., Cat.# CRL-1435) Two thousand cells from the prostate cancer line PC3 were placed in 50 μL of complete RPMI 1640 media (Invitrogen, Carlsbad, Calif., Cat.#22400-105) with 10% fetal bovine serum (Invitrogen, Carlsbad, Calif., Cat.#10438-026) into each well of 96 well cell culture plates in a hexaplicate sampling pattern. A 50 μL aliquot of test compound (prepared from stock test compounds in DMSO diluted into media) was added to the appropriate well such that the final concentrations of test compound were 200, 40, 8, 1.6, 0.32, 0.064, 0.0128, 0.00256, and 0 μM and the final DMSO concentration was less than or equal to 0.2%.
The plates were incubated for 72 hours 37° C. in an atmosphere of 5% CO2. At the end of this time a 10 μL aliquot of WST solution (Roche Applied Science, Mannheim, Germany) was added into each of the wells. Cells were exposed to the WST solution for 4 hours. A SpectraMax Plus spectrophotometric plate reader (Molecular Devices, Sunnydale, Calif.) was then used to measure the optical density at 450 nm (OD450 nm). Sigmoidal curves were drawn for the dose responses and IC50 values were calculated using the software package GraphPad Prism4 (GraphPad Software, Inc., San Diego, Calif.).
Take `O=c1cc(N2CCOCC2)oc2c(-c3cccnc3)csc12` [Compound 3, 5-morpholino-3-(pyridin-3-yl)-7H-thieno[3,2-b]pyran-7-one]: the IC50 was 10.9 µM.

`O=C(NCc1ccc(Cl)cc1)c1csc2c(=O)cc(N3CCOCC3)oc12` [Compound 88]: the IC50 is 22 µM.

With `O=c1cc(N2CCOCC2)oc2c(-c3cc4ccccc4[nH]3)csc12` [Compound 12], the IC50 turned out to be 8.55 µM.

On to `O=C(Nc1ccccc1)c1csc2c(=O)cc(N3CCOCC3)oc12` [Compound 51, 5-morpholino-7-oxo-N-phenyl-7H-thieno[3,2-b]pyran-3-carboxamide], for which the IC50 amounted to 23.8 µM.

On to `O=c1cc(C2CCOCC2)oc2c(-c3ccccc3)cccc12` [Compound 67, 8-Phenyl-2-(tetrahydro-2H-pyran-4-yl)-4H-chromen-4-one], for which the IC50 amounted to 95.8 µM.

Regarding `COC(=O)c1cccc(-c2csc3c(=O)cc(N4CCOCC4)oc23)c1` [Compound 45], the IC50 came out at 4.67 µM.

Regarding `COc1cc(-c2csc3c(=O)cc(N4CCOCC4)oc23)ccc1N` [Compound 95], the IC50 was 81.9 µM.

Take `O=c1cc(N2CCOCC2)oc2c(-c3cccc(Cl)c3)csc12` [Compound 85, 3-(3-chlorophenyl)-5-morpholino-7H-thieno[3,2-b]pyran-7-one]: the IC50 was determined as 3.45 µM.

As to `COc1cccc(-c2csc3c(=O)cc(N4CCOCC4)oc23)c1` [Compound 29], the IC50 is 4.76 µM.

In the case of `O=c1cc(N2CCOCC2)oc2c(-c3ccc(Cl)c(Cl)c3)csc12` [Compound 18], the IC50 was found to be 37.6 µM.

For the compound `O=C(Nc1ccccn1)c1cccc(-c2csc3c(=O)cc(N4CCOCC4)oc23)c1` [Compound 66], the IC50 is 6.91 µM.

As to `O=c1cc(N2CCOCC2)oc2c(C#Cc3ccsc3)csc12` [Compound 23], the IC50 was found to be 7.35 µM.

Consider `O=C(O)c1ccc(-c2csc3c(=O)cc(N4CCOCC4)oc23)cc1` [Compound 100], for which the IC50 is 129 µM.

With `CN(C)c1ccc(NC(=O)c2cccc(-c3csc4c(=O)cc(N5CCOCC5)oc34)c2)cc1` [Compound 65], the IC50 is 12.7 µM.

Consider `CNc1ccc(-c2csc3c(=O)cc(N4CCOCC4)oc23)cc1` [Compound 41], for which the IC50 worked out at 2.07 µM.

Take `O=c1cc(N2CCOCC2)oc2c(-c3ccoc3)csc12` [Compound 27]: the IC50 is 9.26 µM.

For `COc1cc(C#Cc2csc3c(=O)cc(N4CCOCC4)oc23)cc(OC)c1` [Compound 40], the IC50 was found to be 1.8 µM.

On to `O=c1cc(N2CCOCC2)oc2c(-c3ccc(Cl)nc3)csc12` [Compound 32], for which the IC50 came to 9.01 µM.

For `O=C(Nc1cccc(-c2csc3c(=O)cc(N4CCOCC4)oc23)c1)c1cccnc1` [Compound 46], the IC50 came out at 62.1 µM.

Regarding `O=c1cc(N2CCOCC2)oc2c(-c3cccc(O)c3)csc12` [Compound 99], the IC50 was 16.6 µM.

Consider `CN(C(=O)OC(C)(C)C)c1ccc(-c2csc3c(=O)cc(N4CCOCC4)oc23)cc1` [Compound 36], for which the IC50 was 2.69 µM.

With `O=c1cc(N2CCOCC2)oc2c(-c3ccc(O)c(Cl)c3)csc12` [Compound 93], the IC50 was in the range of 6.14 to 9.43 µM.

On to `CN(C)c1ccc(C(=O)Nc2cccc(-c3csc4c(=O)cc(N5CCOCC5)oc34)c2)cc1` [Compound 49], for which the IC50 was found to be 3.18 µM.

With `O=C(NCCN1CCOCC1)c1cccc(-c2csc3c(=O)cc(N4CCOCC4)oc23)c1` [Compound 42], the IC50 was 7.84 µM.

As for `COc1ccc(-c2csc3c(=O)cc(N4CCOCC4)oc23)cc1` [Compound 8], the IC50 was found to be 1.82 µM.

Take `Cc1ccc(-c2csc3c(=O)cc(N4CCOCC4)oc23)cc1` [Compound 15]: the IC50 was 4.48 µM.

For `O=C(NCCN1CCOCC1)c1csc2c(=O)cc(N3CCOCC3)oc12` [Compound 90], the IC50 is 19.9 µM.

For `O=c1cc(N2CCOCC2)oc2c(-c3ccc(O)cc3)csc12` [Compound 98], the IC50 was determined as 6.12 µM.

For the compound `O=c1cc(N2CCOCC2)oc2c(-c3ccncc3)csc12` [Compound 2], the IC50 was 18.5 µM.

For the compound `CN(C)c1ccc(C#Cc2csc3c(=O)cc(N4CCOCC4)oc23)cc1` [Compound 37], the IC50 was determined as 2.5 µM.
